# Experiments:
# JAK1 = JAK1 (Homo sapiens (Human), UniProt P23458); assay: Jak Biochemical HTRF Assay, JAK1; details: HTRF biochemical assay, GST-tagged catalytic domain; top concentration tested […]; read-out: JAK1 IC50
# From the text: (§1) Jak Biochemical HTRF Assay Protocol
# (§2) Subsequent reagent additions employed an Agilent Bravo.
# JAK2 = JAK2 (Homo sapiens (Human), UniProt O60674); assay: Jak Biochemical HTRF Assay, JAK2; details: HTRF biochemical assay, GST-tagged catalytic domain; top concentration tested […]
# From the text: as §1, §2
# Chain of JAK2 (O60674 849-1124): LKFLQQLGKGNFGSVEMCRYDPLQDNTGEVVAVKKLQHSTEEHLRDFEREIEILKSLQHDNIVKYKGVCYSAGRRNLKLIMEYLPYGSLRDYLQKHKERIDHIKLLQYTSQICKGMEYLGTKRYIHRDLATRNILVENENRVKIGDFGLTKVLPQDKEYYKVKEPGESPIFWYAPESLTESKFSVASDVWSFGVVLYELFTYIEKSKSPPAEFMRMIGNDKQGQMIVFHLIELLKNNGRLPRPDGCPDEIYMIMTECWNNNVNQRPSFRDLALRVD
# Chain of JAK1 (P23458 875-1153): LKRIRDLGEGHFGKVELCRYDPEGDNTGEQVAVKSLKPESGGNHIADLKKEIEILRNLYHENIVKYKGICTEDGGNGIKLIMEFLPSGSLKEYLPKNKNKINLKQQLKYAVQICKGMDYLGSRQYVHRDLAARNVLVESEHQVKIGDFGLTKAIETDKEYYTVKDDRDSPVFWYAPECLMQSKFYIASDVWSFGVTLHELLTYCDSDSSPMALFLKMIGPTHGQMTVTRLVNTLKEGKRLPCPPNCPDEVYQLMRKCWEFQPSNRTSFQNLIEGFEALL
IC50 (JAK1) [nM],IC50 (JAK2) [nM],Compound
6,201,"N#CCC1(n2cc(C(N)=O)c(Nc3ccnc(C4CC4)c3)n2)CCN(C(=O)OCC(F)F)CC1 [Example 9-41, 2,2-difluoroethyl 4-{4-carbamoyl-3-[(2-cyclopropylpyridin-4-yl)amino]-1H-pyrazol-1-yl}-4-(cyanomethyl)piperidine-1-carboxylate]"
0.5,4,"N#CCC1(n2cc(C(N)=O)c(Nc3ccc(S(=O)(=O)C(F)(F)F)cc3)n2)CCN(C(=O)OCC(F)(F)F)CC1 [Example 10-2, 2,2,2-trifluoroethyl 4-(4-carbamoyl-3-(4-(trifluoromethylsulfonyl)phenylamino)-1H-pyrazol-1-yl)-4-(cyanomethyl)piperidine-1-carboxylate]"
0.06,0.6,"N#CCC1(n2cc(C(N)=O)c(Nc3ccc(C(O)C(F)(F)F)nc3)n2)CCN(C(=O)OCC(F)(F)F)CC1 (centres unmarked) [Example 10-3, 2,2,2-trifluoroethyl 4-(4-carbamoyl-3-(6-(2,2,2-trifluoro-1-hydroxyethyl)pyridin-3-ylamino)-1H-pyrazol-1-yl)-4-(cyanomethyl)piperidine-1-carboxylate]"
0.4,29,"N#CCC1(n2cc(C(N)=O)c(Nc3cccc(-c4cc[nH]n4)c3)n2)CCN(C(=O)OCC(F)(F)F)CC1 [Example 10-4, 2,2,2-trifluoroethyl 4-(3-(3-(1H-pyrazol-3-yl)phenylamino)-4-carbamoyl-1H-pyrazol-1-yl)-4-(cyanomethyl)piperidine-1-carboxylate]"
0.2,21,"Cn1cc(-c2cccc(Nc3nn(C4(CC#N)CCN(C(=O)OCC(F)(F)F)CC4)cc3C(N)=O)c2)cn1 [Example 10-5, 2,2,2-trifluoroethyl 4-(4-carbamoyl-3-(3-(1-methyl-1H-pyrazol-4-yl)phenylamino)-1H-pyrazol-1-yl)-4-(cyanomethyl)piperidine-1-carboxylate]"
0.8,71,"Cn1cc(-c2cncc(Nc3nn(C4(CC#N)CCN(C(=O)OCC(F)(F)F)CC4)cc3C(N)=O)c2)cn1 [Example 10-6, 2,2,2-trifluoroethyl 4-(4-carbamoyl-3-(5-(1-methyl-1H-pyrazol-4-yl)pyridinl-3-ylamino)-1H-pyrazol-1-yl)-4-(cyanomethyl)piperidine-1-carboxylate]"
0.2,4,"N#CCC1(n2cc(C(N)=O)c(Nc3cccnc3)n2)CCN(C(=O)OCC(F)(F)F)CC1 [Example 10-7, 2,2,2-trifluoroethyl 4-(4-carbamoyl-3-(pyridin-3-ylamino)-1H-pyrazol-1-yl)-4-(cyanomethyl)piperidine-1-carboxylate]"
0.7,21,"N#CCC1(n2cc(C(N)=O)c(Nc3cncc(F)c3)n2)CCN(C(=O)OCC(F)(F)F)CC1 [Example 10-8, 2,2,2-trifluoroethyl 4-(4-carbamoyl-3-(5-fluoropyridin-3-ylamino)-1H-pyrazol-1-yl)-4-(cyanomethyl)piperidine-1-carboxylate]"
0.4,15,"N#CCC1(n2cc(C(N)=O)c(Nc3cncc(Cl)c3)n2)CCN(C(=O)OCC(F)(F)F)CC1 [Example 10-9, 2,2,2-trifluoroethyl 4-{4-carbamoyl-3-[(5-chloropyridin-3-yl)amino]-1H-pyrazol-1-yl}-4-(cyanomethyl)piperidine-1-carboxylate]"
0.03,0.5,"Cn1cc(-c2ccc(Nc3nn(C4(CC#N)CCN(C(=O)OCC(F)(F)F)CC4)cc3C(N)=O)cn2)cn1 [Example 11-1, 2,2,2-Trifluoroethyl 4-(4-carbamoyl-3-{[6-(1-methyl-1H-pyrazol-4-yl)pyridin-3-yl]amino}-1H-pyrazol-1-yl)-4-(cyanomethyl)piperidine-1-carboxylate]"
0.01,0.6,"N#CCC1(n2cc(C(N)=O)c(Nc3ccc(-c4cn[nH]c4)nc3)n2)CCN(C(=O)OCC(F)(F)F)CC1 [Example 11-2, 2,2,2-trifluoroethyl 4-(4-carbamoyl-3-{[6-(1H-pyrazol-4-yl)pyridin-3-yl]amino}-1H-pyrazol-1-yl)-4-(cyanomethyl)piperidine-1-carboxylate]"
0.2,3,"COC(=O)Cc1ccc(Nc2nn(C3(CC#N)CCN(C(=O)OC(C)(C)C)CC3)cc2C(N)=O)cc1 [Example 12-2, tert-butyl 4-(4-carbamoyl-3-{[4-(2-methoxy-2-oxoethyl)phenyl]amino}-1H-pyrazol-1-yl)-4-(cyanomethyl)piperidine-1-carboxylate]"
2,42,"CC(C)(C)OC(=O)N1CCC(CC#N)(n2cc(C(N)=O)c(Nc3cc(F)cc(F)c3)n2)CC1 [Example 12-3, tert-butyl 4-{4-carbamoyl-3-[(3,5-difluorophenyl)amino]-1H-pyrazol-1-yl}-4-(cyanomethyl)piperidine-1-carboxylate]"
0.8,3,"CC(C)(C)OC(=O)N1CCC(CC#N)(n2cc(C(N)=O)c(Nc3ccc(N4CCOCC4)nc3)n2)CC1 [Example 12-4, tert-butyl 4-(4-carbamoyl-3-{[6-(morpholin-4-yl)aphthal-3-yl]amino}-1H-pyrazol-1-yl)-4-(cyanomethyl)piperidine-1-carboxylate]"
0.8,7,"CC(C)(C)OC(=O)N1CCC(CC#N)(n2cc(C(N)=O)c(Nc3ccc(F)nc3)n2)CC1 [Example 12-5, tert-butyl 4-{4-carbamoyl-3-[(6-fluoropyridin-3-yl)amino]-1H-pyrazol-1-yl}-4-(cyanomethyl)piperidine-1-carboxylate]"
0.4,15,"CC(C)(C)OC(=O)N1CCC(CC#N)(n2cc(C(N)=O)c(Nc3ccnnc3)n2)CC1 [Example 12-6, tert-butyl 4-[4-carbamoyl-3-(pyridazin-4-ylamino)-1H-pyrazol-1-yl]-4-(cyanomethyl)piperidine-1-carboxylate]"
0.1,2,"CC(C)(C)OC(=O)N1CCC(CC#N)(n2cc(C(N)=O)c(Nc3ccc4c(c3)CNC4=O)n2)CC1 [Example 12-7, tert-butyl 4-{4-carbamoyl-3-[(1-oxo-2,3-dihydro-1H-isoindol-5-yl)amino]-1H-pyrazol-1-yl}-4-(cyanomethyl)piperidine-1-carboxylate]"
3,139,"CC(C)(C)OC(=O)N1CCC(CC#N)(n2cc(C(N)=O)c(Nc3ccncn3)n2)CC1 [Example 13-1, tert-Butyl 4-(4-carbamoyl-3-(pyrimidin-4-ylamino)-1H-pyrazol-1-yl)-4-(cyanomethyl)piperidine-1-carboxylate]"
13,1010,"Cc1cccc(Nc2nn(C3(CC#N)CCN(C(=O)OC(C)(C)C)CC3)cc2C(N)=O)n1 [Example 13-2, tert-butyl 4-(4-carbamoyl-3-(6-methylpyridin-2-ylamino)-1H-pyrazol-1-yl)-4-(cyanomethyl)piperidine-1-carboxylate]"
8,466,"CC(C)(C)OC(=O)N1CCC(CC#N)(n2cc(C(N)=O)c(Nc3ccccn3)n2)CC1 [Example 13-3, tert-butyl 4-(4-carbamoyl-3-(pyridin-2-ylamino)-1H-pyrazol-1-yl)-4-(cyanomethyl)piperidine-1-carboxylate]"
4,183,"CC(C)(C)OC(=O)N1CCC(CC#N)(n2cc(C(N)=O)c(Nc3ccc(F)cn3)n2)CC1 [Example 13-4, tert-butyl 4-(4-carbamoyl-3-(5-fluoropyridin-2-ylamino)-1H-pyrazol-1-yl)-4-(cyanomethyl)piperidine-1-carboxylate]"
15,903,"CC(C)(C)OC(=O)N1CCC(CC#N)(n2cc(C(N)=O)c(Nc3cc(F)ccn3)n2)CC1 [Example 13-5, tert-butyl 4-(4-carbamoyl-3-(4-fluoropyridin-2-ylamino)-1H-pyrazol-1-yl)-4-(cyanomethyl)piperidine-1-carboxylate]"
26,179,"CC(C)(C)OC(=O)N1CCC(CC#N)(n2cc(C(N)=O)c(Nc3cccnn3)n2)CC1 [Example 13-6, tert-butyl 4-(4-carbamoyl-3-(pyridazin-3-ylamino)-1H-pyrazol-1-yl)-4-(cyanomethyl)piperidine-1-carboxylate]"
8,210,"CC(C)(C)OC(=O)N1CCC(CC#N)(n2cc(C(N)=O)c(Nc3cnccn3)n2)CC1 [Example 13-7, tert-butyl 4-(4-carbamoyl-3-(pyrazine-2-ylamino)-1H-pyrazol-1-yl)-4-(cyanomethyl)piperidine-1-carboxylate]"
9,176,"Cc1cncc(Nc2nn(C3(CC#N)CCN(C(=O)OC(C)(C)C)CC3)cc2C(N)=O)n1 [Example 13-8, tert-butyl 4-(4-carbamoyl-3-(6-methylpyrazine-2-ylamino)-1H-pyrazol-1-yl)-4-(cyanomethyl)piperidine-1-carboxylate]"
6,178,"Cc1cc(Nc2nn(C3(CC#N)CCN(C(=O)OC(C)(C)C)CC3)cc2C(N)=O)nc(C)n1 [Example 13-10, tert-butyl 4-(4-carbamoyl-3-(2,6-dimethylpyrimidin-4-ylamino)-1H-pyrazol-1-yl)-4-(cyanomethyl)piperidine-1-carboxylate]"
5,126,"Cc1cc(Nc2nn(C3(CC#N)CCN(C(=O)OC(C)(C)C)CC3)cc2C(N)=O)ncn1 [Example 13-11, tert-butyl 4-(4-carbamoyl-3-(6-methylpyrimidin-4-ylamino)-1H-pyrazol-1-yl)-4-(cyanomethyl)piperidine-1-carboxylate]"
10,38,"Cc1noc(C)c1-c1ccc(Nc2nn(C3(CC#N)CCN(C(=O)OC(C)(C)C)CC3)cc2C(N)=O)cc1 [Example 14, tert-Butyl 4-(4-carbamoyl-3-{[4-(3,5-dimethylisoxazol-4-yl)phenyl]amino}-1H-pyrazol-1-yl)-4-(cyanomethyl)piperidine-1-carboxylate]"
